According to US5808109A, “Compounds that inhibit complement and/or suppress immune activity” (T Cell Sciences, Inc., priority 1995, dated 1998):
Read-outs that look alike come from different tables or passages of the source.

What was measured:
C3a production = assay: Inhibition of C3a production in human serum (aggregated IgG, RIA); type: biochemical; conditions: human serum, concentration inhibiting C3a production 50% relative to control
Method: The ability to inhibit complement was tested by assaying for specific inhibition of C3a and C5a production. For all experiments, a single human serum pool, to be used as a source of complement, was aliquoted and stored frozen at -70° C. Human IgG was heat-aggregated, aliquoted, and stored frozen at -70° C. For each experiment, serum aliquots were equilibrated at 37° C. with varying concentrations of the compounds tested. The classical complement pathway was initiated by the addition of aggregated human IgG. Control samples containing no IgG were always included. After a fixed reaction time of 10 minutes (determined in an earlier time-course study to provide a convenient time interval during which the production of C5a or C3a is nearly complete, i.e., greater than 90%), the levels of the released complement peptides (C5a or C3a) were determined by radioimmunoassay using commercially available radioimmunoassay (RIA) kits (C5a RIA, UpJohn Cat. No. 3250-02; C3a RIA, UpJohn Cat. No. 3245-01; C5a RIA, Amersham Cat. No. RPA.520; C3a RIA, Amersham RPA.518).
Since a competitive immunoassay was used, complement peptide (C5a and C3a) concentrations varied inversely with the counts. The Counts Bound (CB) for a sample was defined as the total counts (in counts per minute, cpm) measured in the pellet minus the counts measured in a nonspecific binding (NSB) control. The NSB control was a sample containing only tracer peptide (^125 I-labelled) and second precipitating antiserum; it contained no C5a- or C3a-specific antiserum.
The y-axis in FIG. 2 represents the fraction inhibition. The fraction inhibition is equal to the Counts Bound (CB) for a "sample," less the CB in the "sample with no added compound," divided by the CB for the "no IgG control" less the CB in the "sample with no added compound." [formula]
FIG. 2 is representative of the data plots obtained from the assays described above.

human complement = assay: Inhibition of complement-mediated hemolysis, human serum, sensitized sheep erythrocytes; type: biochemical
Method: The ability to inhibit complement was also tested by assaying for inhibition of complement-mediated red cell lysis (hemolysis). The inhibition of hemolysis was determined as a function of compound concentration. The compounds to be tested were diluted in 0.1M Hepes buffer (0.15N NaCl, pH 7.4), and 50 μl were added to each well of a V-bottom microtiter plate. Human serum, used as the complement source, was diluted 1 to 500 in Hepes buffer, and 50 μl were added to each well. Next, commercially available sheep erythrocytes with anti-sheep antibody (Diamedix Cat. No. 789-001) were used as received and added at 100 μl/well to initiate the complement pathway leading to hemolysis. The plate was incubated for 60 minutes at 37° C. and then centrifuged at 500×g for 10 minutes. The supernatants were removed and placed in a flat-bottom microtiter plate. The extent of hemolysis was measured as a function of the sample absorbance at 410 nm. The maximal absorbance (corresponding to maximal hemolysis), Amax, was obtained from the absorbance value of an erythrocyte sample containing only human serum, AS, less the absorbance of a sample containing only the red cells, A0. Thus, Amax =AS -A0. The difference between the absorbance of an erythrocyte sample containing both human serum and inhibitive compound, and the absorbance of a cell sample containing inhibitive compound only, was defined as Asample. The inhibition, IH, was expressed as the fraction (Amax -Asample)/Amax, and IH50 was defined as the concentration of inhibitive compound required to produce a value of IH=1/2.
The 4 substituted spirobenzofuran compounds of example 7 and the disubstituted spirobenzofuran compounds of example 8 were tested for their capacity to inhibit complement-mediated lysis of sheep red blood cells (SRBC) as described in Section 6.6.2 supra with the modification that the human serum used as the complement source was diluted to 1 to 100 in Hepes buffer, instead of […]. The results of the hemolysis assays are shown in FIG. 8 and Tables XI and XII.

[1] = Inhibition of natural killer activity, 51Cr release cytotoxicity assay; type: cell-based; conditions: human, k562 cells, read-out: Spont. Release Target Cells Alone (K562)
Method: (§1) Compounds were tested for their effects on the ability of peripheral blood mononuclear cells to lyse NK-sensitive target cells, K562. NK activity was determined using ^51 Cr-labeled K562 erythromyeloid leukemia cells as targets, and normal peripheral blood mononuclear cells as effector cells, in a four hour cytotoxicity assay. Effector cells were isolated from fresh blood by Ficoll-Hypaque gradient centrifugation, and 100 μl of a 5×10^5 cell/well suspension were added to each well of a V-bottom microtiter plate. The compound 11a was diluted in RPMI 1640 medium containing 10% fetal calf serum and dispensed at 100 μl per well. Target cells (K562) were labeled for 30 minutes with 100 μCi of ^51 Cr, washed thoroughly and dispensed in a 20 μl volume at 10^4 cells/well. […] The microtiter plate was centrifuged at 50×g for 5 minutes and incubated in a humidified chamber with 5% CO2 at 37° C. After 4 hours, 100 μl were removed from each well and the radioactivity was measured with a LKB 1275 gamma counter. The percent specific lysis was calculated as follows:
(§2) % specific lysis=[(EXP-SR)/(TOTAL-B)]×100
(§3) where EXP (experimental value) was obtained using effector and target cells; SR (the spontaneous release) was obtained from target cells incubated with media alone; TOTAL release was obtained by hypotonic lysis in water; and B represents instrumental background. Means were calculated from quadruplicate wells and the standard deviations never exceeded 10%. Viability of the effector cells incubated with the test compound was determined by trypan blue exclusion.

[2] = system: K562 erythromyeloid leukemia cells (NK-sensitive target cells); assay: as above; type: cell-based; conditions: effector:target 50:1, 4 h
Method: as §1, §2, §3

[3] = Viability of effector cells by trypan blue exclusion; type: cell-based; conditions: human, peripheral blood mononuclear cells
Method: as §3

[4] = system: Chinese hamster ovary (CHO) cells; assay: CHO cell proliferation, 3H-thymidine incorporation; type: cell-based
Method: Non-confluent CHO cells were allowed to proliferate for 4 hours in a 96-well plate at a volume of 50 μl per well in the absence or presence of compound 11a at a concentration of 1.8 mM. The cells were pulsed with 0.5 μCi of ^3 H-thymidine per sample for 4 hours, harvested, and the amount of incorporated ^3 H-thymidine was determined by scintillation counting. The CHO cells allowed to proliferate in the absence of added compound yielded a value of 57025 (±7530) CPM. The value for the sample grown in the presence of 11a was 52549 (±6272) CPM.

In the case of COc1ccc(C(=O)O)c2c1CC1(CCCCC1)O2 [Compound 11a, 7-carboxy-4-methoxyspiro[benzofuran-2(3H)-cyclohexane]], the IC50 (C3a production) is reported as 22 mM, the IC50 (human complement; Table VII, human serum, read-out: IHO50) is reported as 1.33 mM and the IC50 (human complement; Table XI, human serum diluted 1 to 100, read-out: IH50 Mean) is reported as 1.33 mM. For the same compound, the IC50 (human complement; from FIG. 3 plot, read-out: IH50 (the source's name)) was roughly 0.9 mM, the % spontaneous 51Cr release of K562 target cells alone at 4 h, 400 µM ([1]; 0.4 mM) was 5% and the % spontaneous 51Cr release of K562 target cells alone at 4 h, 800 µM ([1]; 0.8 mM) was 5%. It also gave a % spontaneous 51Cr release of K562 target cells alone at 4 h, 1600 µM ([1]; 1.6 mM) of 5%, a % spontaneous 51Cr release of K562 target cells alone at 4 h, 3200 µM ([1]; 3.2 mM) of 5% and a % spontaneous 51Cr release of K562 target cells alone at 4 h, 6400 µM ([1]; 6.4 mM) of 23%. For the same compound, the “% Specific Lysis” value ([2]; 0.4 mM) was 7%, the “% Specific Lysis” value ([2]; 0.8 mM) was 4% and the “% Specific Lysis” value ([2]; 1.6 mM) was 1%. For the same compound, the “% Specific Lysis” value ([2]; 3.2 mM) was -1%, the “% Specific Lysis” value ([2]; 6.4 mM) was 18% and the viability at 400 µM ([3]; 0.4 mM) was 95%. The viability at 800 µM ([3]; 0.8 mM) was 95%, the viability at 1600 µM ([3]; 1.6 mM) was 95% and the viability at 3200 µM ([3]; 3.2 mM) was 76%. For the same compound, the viability at 6400 µM ([3]; 6.4 mM) was 5%, the “inhibition of CHO cell proliferation” value [4] was “no inhibition” and the “incorporated 3H-thymidine” value ([4]; 1.8 mM, CHO cells) was 52549 (±6272) CPM.
